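These data come from cells grown in 96-well plates and exposed to compound for 48 hours at five concentrations. Abbreviation: GI50, concentration required for 50% inhibition of growth. At the TGI there is no net growth.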
How the values were obtained:
Assay in all cases: NCI tumour cell line growth inhibition, 48 h
[1] = system: HT29 colon
[2] = system: MDA-MB-231 breast
[3] = system: HS 578T breast
[4] = system: OVCAR-8 ovarian
[5] = system: A549 NSCLC
[6] = system: SK-MEL-5 melanoma
[7] = system: HCC-2998 colon
[8] = system: SNB-19 CNS
[9] = system: MDA-MB-435
[10] = system: MALME-3M melanoma
[11] = system: NCI-H23 lung
[12] = system: LOX IMVI melanoma
[13] = system: SF-268 CNS
[14] = system: SK-OV-3 ovarian
[15] = system: SNB-75 CNS
[16] = system: MCF7 breast
[17] = system: CCRF-CEM leukemia
[18] = system: NCI/ADR-RES ovarian
[19] = system: MOLT-4 leukemia
[20] = system: SF-539 CNS
[21] = system: SW-620 colon
[22] = system: RXF 393 renal
[23] = system: SN12C renal
[24] = system: 786-0 renal
[25] = system: T-47D breast
[26] = system: HOP-92 NSCLC
[27] = system: EKVX NSCLC
[28] = system: SR leukemia
[29] = system: SF-295 CNS
[30] = system: A498 renal
[31] = system: SK-MEL-28 melanoma
[32] = system: UACC-62 melanoma
[33] = system: M14 melanoma
[34] = system: COLO 205 colon
[35] = system: BT-549 breast
[36] = system: U251 CNS
[37] = system: HL-60(TB) leukemia
[38] = system: HOP-62 NSCLC
[39] = system: ACHN renal
[40] = system: UACC-257 melanoma
[41] = system: RPMI-8226 leukemia
[42] = system: NCI-H460 lung
[43] = system: NCI-H226 lung
[44] = system: CAKI-1 renal
[45] = system: HCT-116 colon
[46] = system: OVCAR-5 ovarian
[47] = system: TK-10 renal
[48] = system: DU-145 prostate
[49] = system: NCI-H522 lung
[50] = system: K-562 leukemia
[51] = system: OVCAR-3 ovarian
[52] = system: UO-31 renal
[53] = system: PC-3 prostate
[54] = system: IGROV1 ovarian
[55] = system: OVCAR-4 ovarian
[56] = system: SK-MEL-2 melanoma
[57] = system: KM12 colon
[58] = system: HCT-15 colon

SMILES: COc1ccc2c(c1)C(=O)c1c-2n(CCCCl)c(=O)c2cc(OC)c(OC)cc12
- GI50 [1]: > 52.1 µM
- TGI [1]: > 100 µM
- GI50 [2]: > 100 µM
- TGI [2]: > 100 µM
- GI50 [3]: > 77.2 µM
- TGI [3]: > 100 µM
- GI50 [4]: 53.4 µM
- TGI [4]: > 100 µM
- GI50 [5]: 12 µM
- TGI [5]: > 100 µM
- GI50 [6]: 9.2 µM
- TGI [6]: 30.1 µM
- GI50 [7]: 17.4 µM
- TGI [7]: > 95.9 µM
- GI50 [8]: 13.2 µM
- TGI [8]: > 100 µM
- GI50 [9]: 42.5 µM
- TGI [9]: > 100 µM
- GI50 [10]: 18.6 µM
- TGI [10]: > 96.1 µM
- GI50 [11]: 15.5 µM
- TGI [11]: > 100 µM
- GI50 [12]: 6.87 µM
- TGI [12]: > 61.9 µM
- GI50 [13]: 8.63 µM
- TGI [13]: > 100 µM
- GI50 [14]: 28.6 µM
- TGI [14]: > 100 µM
- GI50 [15]: > 24.7 µM
- TGI [15]: > 75.5 µM
- GI50 [16]: 6.27 µM
- TGI [16]: > 100 µM
- GI50 [17]: 2.02 µM
- GI50 [18]: 11.6 µM
- TGI [18]: > 100 µM
- GI50 [19]: 2.55 µM
- TGI [19]: 6.29 µM
- GI50 [20]: 6.29 µM
- TGI [20]: > 57.3 µM
- GI50 [21]: 19.6 µM
- TGI [21]: > 100 µM
- TGI [22]: > 21.1 µM
- GI50 [23]: 6.67 µM
- TGI [23]: > 100 µM
- GI50 [24]: 5.41 µM
- TGI [24]: 31.7 µM
- GI50 [25]: 13.5 µM
- TGI [25]: > 100 µM
- GI50 [26]: > 32.6 µM
- TGI [26]: > 86.4 µM
- GI50 [27]: > 100 µM
- TGI [27]: > 100 µM
- GI50 [28]: 1.39 µM
- TGI [28]: 6.62 µM
- GI50 [29]: 3.99 µM
- TGI [29]: > 100 µM
- GI50 [30]: > 52.5 µM
- TGI [30]: > 100 µM
- GI50 [31]: > 79.4 µM
- TGI [31]: > 100 µM
- GI50 [32]: 4.6 µM
- TGI [32]: > 100 µM
- GI50 [33]: 6.24 µM
- TGI [33]: > 100 µM
- GI50 [34]: > 100 µM
- TGI [34]: > 100 µM
- GI50 [35]: > 100 µM
- TGI [35]: > 100 µM
- GI50 [36]: 5.95 µM
- TGI [36]: > 100 µM
- GI50 [37]: 4.11 µM
- TGI [37]: 18 µM
- GI50 [38]: 5.13 µM
- TGI [38]: > 51.3 µM
- GI50 [39]: 3.28 µM
- TGI [39]: 14 µM
- GI50 [40]: 45.3 µM
- TGI [40]: > 100 µM
- GI50 [41]: 2.14 µM
- TGI [41]: 14.5 µM
- GI50 [42]: 2.4 µM
- TGI [42]: > 100 µM
- GI50 [43]: > 79.1 µM
- TGI [43]: > 100 µM
- GI50 [44]: 6.47 µM
- TGI [44]: > 24.4 µM
- GI50 [45]: 8.68 µM
- TGI [45]: > 100 µM
- GI50 [46]: > 100 µM
- TGI [46]: > 100 µM
- GI50 [47]: > 70.2 µM
- TGI [47]: > 100 µM
- GI50 [48]: 4.01 µM
- TGI [48]: > 48.1 µM
- GI50 [49]: 9.12 µM
- TGI [49]: > 95 µM
- GI50 [50]: 32.4 µM
- TGI [50]: > 100 µM
- GI50 [51]: 82.3 µM
- TGI [51]: > 100 µM
- GI50 [52]: 8.4 µM
- TGI [52]: > 100 µM
- GI50 [53]: 41.5 µM
- TGI [53]: > 100 µM
- GI50 [54]: 17.1 µM
- TGI [54]: > 100 µM
- GI50 [55]: > 91.7 µM
- TGI [55]: > 100 µM
- GI50 [56]: > 100 µM
- TGI [56]: > 100 µM
- GI50 [57]: > 54.2 µM
- TGI [57]: > 100 µM
- GI50 [58]: > 96.4 µM
- TGI [58]: > 100 µM

Reference: PubChem BioAssay (NCI)
